Among the test systems are BT-549; DU-145; EKVX; HCT-116; HOP-92; HT-29; KM12; M14; MDA-MB-231; OVCAR-5; SF-268; SK-MEL-2; SK-MEL-5; SR; TK-10; UACC-62; HCC 2998; MCF7; SF-539.
Assay in all cases: growth of human tumour cells (NCI), 48 h

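Where inhibition never reached the appropriate level, the endpoint shown equals the highest concentration tested. Otherwise, values were interpolated linearly from a five-concentration, 48-hour dose response in 96-well plates. GI50: concentration for 50% inhibition of growth.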 Active and inactive are the calls of the source. Cut-off read from the data, not from the text of the source: active = GI50 up to about 1.1 µM and inactive = higher.

Turning to `COc1cc(C2=C(C)[C@@H]3CN(CC=C3c3ccc(Cl)cc3)C2)c(S(=O)(=O)O)cc1OC`, the GI50 in the experiment with BT-549, in the experiment on DU-145, with EKVX, with HCT-116, in the experiment with HOP-92 and with HT-29 was > 100 µM (inactive) throughout. In addition, the GI50 in the experiment with KM12, in the experiment with M14, with MDA-MB-231, in the experiment on OVCAR-5, with SF-268 and in the experiment on SK-MEL-2 was > 100 µM (inactive) in each case. In addition, the GI50 in the experiment with SK-MEL-5, in the experiment with SR, in the experiment with TK-10 and with UACC-62 was > 100 µM (inactive) each time.

Turning to `COc1cc(-c2nc(N)c(C#N)c3c2CCS(=O)(=O)c2ccc(C)cc2-3)cc(OC)c1OC`, the GI50 in the experiment on BT-549 is 53 µM (inactive); with DU-145, > 100 µM (inactive); with HCC 2998, > 100 µM (inactive); in the experiment with HCT-116, > 100 µM (inactive); with HOP-92 it was 9.16 µM (inactive); with HT-29 it was > 100 µM (inactive). Also, the GI50 with KM12 was > 100 µM (inactive); in the experiment on M14, > 100 µM (inactive); in the experiment with MDA-MB-231 it was 17.3 µM (inactive); in the experiment with OVCAR-5 it was > 100 µM (inactive); in the experiment with SF-268, > 100 µM (inactive); with SK-MEL-2, 49.7 µM (inactive). For the same molecule, the GI50 in the experiment with SK-MEL-5 is > 100 µM (inactive); in the experiment on SR, > 100 µM (inactive); with TK-10 it was 9.98 µM (inactive); in the experiment with UACC-62 it was > 100 µM (inactive).

As to `N#CC(=S)Nc1cccc(Cl)c1`, the GI50 was 35.5 µM (inactive) with BT-549; 50.8 µM (inactive) with DU-145; 41.1 µM (inactive) in the experiment with EKVX; 28.8 µM (inactive) with HCC 2998; 55.3 µM (inactive) in the experiment on HCT-116; 35.6 µM (inactive) in the experiment on HOP-92. The GI50 in the experiment on HT-29 is 19.5 µM (inactive); with KM12, 24.8 µM (inactive); in the experiment on M14, 27.5 µM (inactive); in the experiment with MCF7, 46.8 µM (inactive); with MDA-MB-231, 38.4 µM (inactive); in the experiment on OVCAR-5, 28.5 µM (inactive). For the same molecule, the GI50 was 40.5 µM (inactive) in the experiment on SF-268; 25.9 µM (inactive) with SF-539; 26.5 µM (inactive) with SK-MEL-2; 4.11 µM (inactive) in the experiment on SK-MEL-5; 35.4 µM (inactive) with TK-10; 19 µM (inactive) with UACC-62.

Turning to `CC1(C)[C@H]2Cc3cc4nc5ccccn5c4cc3[C@@H]1C2`, the GI50 is 24.9 µM (inactive) in the experiment with BT-549; 20.8 µM (inactive) with DU-145; 15.9 µM (inactive) with EKVX; 18.3 µM (inactive) in the experiment on HCC 2998; 17.5 µM (inactive) with HCT-116; 14.5 µM (inactive) in the experiment on HOP-92. The GI50 in the experiment on HT-29 was 14.1 µM (inactive); in the experiment on KM12, 18.6 µM (inactive); with M14, 19.8 µM (inactive); in the experiment with MCF7, 3.37 µM (inactive); with MDA-MB-231 it was 13 µM (inactive); in the experiment with OVCAR-5 it was 13.9 µM (inactive). Moreover, the GI50 in the experiment with SF-268 is 17.6 µM (inactive); in the experiment with SF-539 it was 16.4 µM (inactive); with SK-MEL-2, 15.5 µM (inactive); with SK-MEL-5 it was 17.6 µM (inactive); in the experiment with TK-10 it was 16.3 µM (inactive); with UACC-62, 15.6 µM (inactive).

As to `Cc1ccc(C(=O)N/N=C(\N=N\c2ccccc2[N+](=O)[O-])c2ccc(N(C)C)cc2)cc1`, the GI50 in the experiment with BT-549 was > 100 µM (inactive); in the experiment on EKVX, > 100 µM (inactive); in the experiment with HCC 2998, 60.5 µM (inactive); with HCT-116 it was > 100 µM (inactive); in the experiment on HOP-92, > 100 µM (inactive); in the experiment on HT-29, > 100 µM (inactive). The GI50 in the experiment on KM12, with M14, with MCF7, in the experiment on MDA-MB-231, in the experiment on OVCAR-5 and in the experiment on SF-268 was > 100 µM (inactive) each time. The GI50 was > 100 µM (inactive) in the experiment with SF-539; > 100 µM (inactive) in the experiment on SK-MEL-2; > 100 µM (inactive) in the experiment with SK-MEL-5; 33.7 µM (inactive) in the experiment with SR; > 100 µM (inactive) with TK-10; 17.4 µM (inactive) with UACC-62.

For `CCOc1ccc(/N=N/C2C(=O)N(C(=O)CC(=O)Nc3ccccc3OC)N=C2C)cc1` (centres undefined), the GI50 is 13.2 µM (inactive) in the experiment on BT-549; > 77.6 µM (inactive) in the experiment on DU-145; > 21.7 µM (inactive) in the experiment on HCC 2998; 8.63 µM (inactive) in the experiment with HCT-116; > 32.4 µM (inactive) with HOP-92; 4.13 µM (inactive) with HT-29. Moreover, the GI50 in the experiment with KM12 was 4.35 µM (inactive); in the experiment with M14, 25.5 µM (inactive); with MCF7 it was 6.61 µM (inactive); in the experiment on MDA-MB-231, > 36.5 µM (inactive); with OVCAR-5, > 100 µM (inactive); with SF-268, > 42.8 µM (inactive). Moreover, the GI50 with SF-539 was 7.83 µM (inactive); in the experiment with SK-MEL-2 it was > 38.2 µM (inactive); with SK-MEL-5, 32.3 µM (inactive); in the experiment on TK-10, > 33.1 µM (inactive); in the experiment on UACC-62, > 44.3 µM (inactive).

Take `CCC(C)(C)c1ccc(Oc2cccc(C(=O)O)c2)cc1`: the GI50 in the experiment with BT-549 was 66.7 µM (inactive); in the experiment on DU-145, 97.1 µM (inactive); in the experiment with EKVX, 40.4 µM (inactive); in the experiment on HCC 2998 it was 93.3 µM (inactive); in the experiment on HCT-116 it was 41.5 µM (inactive); in the experiment on HT-29 it was 44.4 µM (inactive). The GI50 in the experiment on KM12 was 47.1 µM (inactive); in the experiment on M14, 52.8 µM (inactive); in the experiment on MCF7, 36.8 µM (inactive); with MDA-MB-231 it was > 100 µM (inactive); with OVCAR-5, > 100 µM (inactive); in the experiment with SF-268, 46.8 µM (inactive). The GI50 was 33.5 µM (inactive) in the experiment with SF-539; 45.2 µM (inactive) in the experiment with SK-MEL-2; 43.1 µM (inactive) with SK-MEL-5; > 100 µM (inactive) in the experiment with TK-10; 34.6 µM (inactive) in the experiment on UACC-62.

Consider `CCOP(=O)(/C=C/n1cc(C)c(=O)[nH]c1=O)OCC`, for which the GI50 in the experiment on BT-549, with DU-145, in the experiment with EKVX, with HCT-116, with HT-29 and in the experiment on KM12 was > 100 µM (inactive) throughout. Moreover, the GI50 with M14, with MCF7, in the experiment with MDA-MB-231, in the experiment with OVCAR-5, in the experiment on SF-268 and in the experiment with SF-539 was > 100 µM (inactive) in each case. Besides, the GI50 with SK-MEL-2, with SK-MEL-5, in the experiment on TK-10 and with UACC-62 was > 100 µM (inactive) each time.

Take `CC[C@H]1C=CCC[C@@]2(C[C@@H]3CC[C@H]4[C@@H](C(=O)OCCCCCCCCCCCCCCCC(=O)N(CCCNC(C)=O)C[C@H](CCNC(C)=O)OC(C)=O)[C@@]5(CCC[C@@H](C)O5)NC(=[N+]34)N2)O1`: the GI50 in the experiment on BT-549 is 1.82 µM (inactive); in the experiment on DU-145 it was 1.57 µM (inactive); in the experiment on EKVX, 0.861 µM (active); with HCC 2998 it was 1.26 µM (inactive); in the experiment on HCT-116 it was 1.58 µM (inactive); in the experiment with HOP-92, 1.11 µM (active). In addition, the GI50 is 1.4 µM (inactive) in the experiment with HT-29; 1.38 µM (inactive) in the experiment on KM12; 1.73 µM (inactive) with M14; 1.46 µM (inactive) in the experiment on MCF7; 1.51 µM (inactive) in the experiment on OVCAR-5; 1.66 µM (inactive) in the experiment on SF-268. Moreover, the GI50 with SF-539 was 1.48 µM (inactive); in the experiment with SK-MEL-2, 1.72 µM (inactive); with SK-MEL-5, 1.3 µM (inactive); in the experiment with SR, 1.56 µM (inactive); in the experiment with TK-10 it was 1.56 µM (inactive); with UACC-62, 1.85 µM (inactive).

For the molecule `COc1cc(/C=C2/SC(c3ccccc3)N(c3cccc(NC(C)=O)c3)C2=O)cc(OC)c1OC` (centres undefined), the GI50 in the experiment with BT-549 is 44.7 µM (inactive); with DU-145 it was 92.3 µM (inactive); in the experiment on EKVX it was 50.7 µM (inactive); in the experiment on HCC 2998, > 100 µM (inactive); with HCT-116 it was 30.2 µM (inactive); in the experiment on HOP-92, 85.3 µM (inactive). Also, the GI50 was 38.6 µM (inactive) in the experiment on HT-29; 39.1 µM (inactive) in the experiment with KM12; 27.7 µM (inactive) with M14; 39.2 µM (inactive) in the experiment on MCF7; > 100 µM (inactive) in the experiment on OVCAR-5; 67.9 µM (inactive) with SF-268. Moreover, the GI50 in the experiment with SF-539 is 49.3 µM (inactive); with SK-MEL-5, 24.8 µM (inactive); in the experiment on SR, 23.4 µM (inactive); with TK-10, > 100 µM (inactive); in the experiment on UACC-62, 50.5 µM (inactive).

Regarding `CCN(CC)C(=S)SS(=O)(=O)c1ccccc1[N+](=O)[O-]`, the GI50 with BT-549 is > 51.2 µM (inactive); in the experiment with DU-145 it was 27.3 µM (inactive); in the experiment with EKVX, > 100 µM (inactive); in the experiment with HCC 2998, > 49.2 µM (inactive); in the experiment with HCT-116 it was 18.2 µM (inactive); with HOP-92 it was 24 µM (inactive). The GI50 was 16.9 µM (inactive) with HT-29; > 35.4 µM (inactive) with KM12; 25 µM (inactive) with M14; 18.1 µM (inactive) in the experiment on MDA-MB-231; > 50.4 µM (inactive) in the experiment with OVCAR-5; 30.7 µM (inactive) in the experiment on SF-268. In addition, the GI50 in the experiment on SF-539 is 19.9 µM (inactive); with SK-MEL-2 it was > 76.7 µM (inactive); in the experiment on SK-MEL-5 it was 5.83 µM (inactive); in the experiment with SR, 0.359 µM (active); in the experiment on TK-10, 31.9 µM (inactive); in the experiment with UACC-62, 35 µM (inactive).

(Values after ChEMBL document CHEMBL1201862, “PubChem BioAssay data set” (2004).)
